PubChem BioAssay AID1963851 (Molecular Pharmacology Branch, DTP, NCI, 2024)

System: 188146-221-R-J1-PDC complex spheroid viability
Test: Anticancer human tumor 188146-221-R-J1-PDC patient-derived colon adenocarcinoma cell line growth inhibition [POLQ]
Settings: for IC50: curve of first compound; for viability, T/C: stronger effect = lower value
Summary of the method: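 Growth inhibition in 3D: complex spheroids (tumor PDC, HUVEC, MSC) treated with POLQ inhibitor combinations; where Cmax unknown, highest tested concentration 10 microM, except SN-38 at 1 microM.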

[1] = second compound 0.0316 µM, first compound 0.0316 µM
[2] = second compound 0.0316 µM, first compound 0.1 µM
[3] = second compound 0.0316 µM, first compound 0.316 µM
[4] = second compound 0.0316 µM, first compound 1 µM
[5] = second compound 0.1 µM, first compound 0.0316 µM
[6] = second compound 0.1 µM, first compound 0.1 µM
[7] = second compound 0.1 µM, first compound 0.316 µM
[8] = second compound 0.1 µM, first compound 1 µM
[9] = second compound 0.316 µM, first compound 0.0316 µM
[10] = second compound 0.316 µM, first compound 0.1 µM
[11] = second compound 0.316 µM, first compound 0.316 µM
[12] = second compound 0.316 µM, first compound 1 µM
[13] = second compound 1 µM, first compound 0.0316 µM
[14] = second compound 1 µM, first compound 0.1 µM
[15] = second compound 1 µM, first compound 0.316 µM
[16] = second compound 1 µM, first compound 1 µM
[17] = second compound 3.16 µM, first compound 0.0316 µM
[18] = second compound 3.16 µM, first compound 0.1 µM
[19] = second compound 3.16 µM, first compound 0.316 µM
[20] = second compound 3.16 µM, first compound 1 µM
[21] = second compound 10 µM, first compound 0.0316 µM
[22] = second compound 10 µM, first compound 0.1 µM
[23] = second compound 10 µM, first compound 0.316 µM
[24] = second compound 10 µM, first compound 1 µM
[25] = second compound 0.0316 µM, first compound 0.00316 µM
[26] = second compound 0.0316 µM, first compound 0.01 µM
[27] = second compound 0.1 µM, first compound 0.00316 µM
[28] = second compound 0.1 µM, first compound 0.01 µM
[29] = second compound 0.316 µM, first compound 0.00316 µM
[30] = second compound 0.316 µM, first compound 0.01 µM
[31] = second compound 1 µM, first compound 0.00316 µM
[32] = second compound 1 µM, first compound 0.01 µM
[33] = second compound 3.16 µM, first compound 0.00316 µM
[34] = second compound 3.16 µM, first compound 0.01 µM
[35] = second compound 10 µM, first compound 0.00316 µM
[36] = second compound 10 µM, first compound 0.01 µM
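Further: spheroids exposed to compounds for seven days.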
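Wherever viability, T/C is given: 100% = DMSO vehicle control viability.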

Compound `COc1cc(C2c3cc4c(cc3C(OC3OC5COC(C)OC5C(O)C3O)C3COC(=O)C23)OCO4)cc(OC)c1O` (stereo unspecified) + Nc1ccc(C#CCN(C(=O)Cc2ncc(C(F)(F)F)cc2C(F)(F)F)c2ccc(F)cc2)nn1 has an IC50 (second compound 0.0316 µM) of 597 nM, an IC50 (second compound 0.1 µM) of 789 nM and an IC50 (second compound 0.316 µM) of 582 nM. It also gave an IC50 (second compound 1 µM) of 626 nM, an IC50 (second compound 3.16 µM) of 625 nM and an IC50 (second compound 10 µM) of 633 nM. For the same compound, the viability, T/C [1] was 87.2%, the viability, T/C [2] was 95.2% and the viability, T/C [3] was 61.4%. For the same compound, the viability, T/C [4] was 40.7%, the viability, T/C (second compound 0.0316 µM, first compound 3.16 µM) was 24.9% and the viability, T/C (second compound 0.0316 µM, first compound 10 µM) was 22.9%. The viability, T/C [5] was 89.5%, the viability, T/C [6] was 87.3% and the viability, T/C [7] was 65.9%. The viability, T/C [8] was 48.2%, the viability, T/C (second compound 0.1 µM, first compound 3.16 µM) was 27.7% and the viability, T/C (second compound 0.1 µM, first compound 10 µM) was 28.5%. The viability, T/C [9] was 97.1%, the viability, T/C [10] was 97.8% and the viability, T/C [11] was 66.3%. For the same compound, the viability, T/C [12] was 35.5%, the viability, T/C (second compound 0.316 µM, first compound 3.16 µM) was 25% and the viability, T/C (second compound 0.316 µM, first compound 10 µM) was 21.4%. The viability, T/C [13] was 97.5%, the viability, T/C [14] was 79.3% and the viability, T/C [15] was 67.6%. For the same compound, the viability, T/C [16] was 39.4%, the viability, T/C (second compound 1 µM, first compound 3.16 µM) was 24.6% and the viability, T/C (second compound 1 µM, first compound 10 µM) was 22.2%. For the same compound, the viability, T/C [17] was 100%, the viability, T/C [18] was 88.5% and the viability, T/C [19] was 64.2%. For the same compound, the viability, T/C [20] was 40.7%, the viability, T/C (second compound 3.16 µM, first compound 3.16 µM) was 27.1% and the viability, T/C (second compound 3.16 µM, first compound 10 µM) was 25%. It also gave a viability, T/C [21] of 86.8%, a viability, T/C [22] of 78.4% and a viability, T/C [23] of 58.8%. For the same compound, the viability, T/C [24] was 47.4%, the viability, T/C (second compound 10 µM, first compound 3.16 µM) was 25% and the viability, T/C (second compound 10 µM, first compound 10 µM) was 29%.
In the case of `COc1cccc(OCCCN)c1-c1cc(Nc2cnc(C#N)cn2)n[nH]1` + Nc1ccc(C#CCN(C(=O)Cc2ncc(C(F)(F)F)cc2C(F)(F)F)c2ccc(F)cc2)nn1, the IC50 (second compound 0.0316 µM) is reported as 64.2 nM, the IC50 (second compound 0.1 µM) is reported as 57.3 nM and the IC50 (second compound 0.316 µM) is reported as 47.7 nM. It also gave an IC50 (second compound 1 µM) of 29.9 nM, an IC50 (second compound 3.16 µM) of 37.5 nM and an IC50 (second compound 10 µM) of 28.6 nM. For the same compound, the viability, T/C [25] was 94.9%, the viability, T/C [26] was 96% and the viability, T/C [1] was 77.4%. For the same compound, the viability, T/C [2] was 32.7%, the viability, T/C [3] was 16.2% and the viability, T/C [4] was 13.6%. For the same compound, the viability, T/C [27] was 104%, the viability, T/C [28] was 109% and the viability, T/C [5] was 66.6%. It also gave a viability, T/C [6] of 34.3%, a viability, T/C [7] of 17.3% and a viability, T/C [8] of 14%. For the same compound, the viability, T/C [29] was 106%, the viability, T/C [30] was 99.1% and the viability, T/C [9] was 59.1%. The viability, T/C [10] was 30.9%, the viability, T/C [11] was 16.9% and the viability, T/C [12] was 12.2%. For the same compound, the viability, T/C [31] was 108%, the viability, T/C [32] was 111% and the viability, T/C [13] was 46.8%. The viability, T/C [14] was 28.2%, the viability, T/C [15] was 15.6% and the viability, T/C [16] was 14%. It also gave a viability, T/C [33] of 91.5%, a viability, T/C [34] of 85.1% and a viability, T/C [17] of 54.3%. For the same compound, the viability, T/C [18] was 23.7%, the viability, T/C [19] was 15.6% and the viability, T/C [20] was 13.7%. For the same compound, the viability, T/C [35] was 119%, the viability, T/C [36] was 87.8% and the viability, T/C [21] was 47.6%. The viability, T/C [22] was 21.7%, the viability, T/C [23] was 17% and the viability, T/C [24] was 15.4%.
In the case of `CC[C@@]1(O)C(=O)OCc2c1cc1n(c2=O)Cc2cc3c(CN(C)C)c(O)ccc3nc2-1` + Cc1cccc(N(C)C(=O)C2C(O)CCN2c2nc(C)cc(C(F)(F)F)c2C#N)c1, the IC50 (second compound 0.0316 µM) is reported as over 100 nM, the IC50 (second compound 0.1 µM) is reported as over 100 nM and the IC50 (second compound 0.316 µM) is reported as over 100 nM. It also gave an IC50 (second compound 1 µM) of over 100 nM, an IC50 (second compound 3.16 µM) of over 100 nM and an IC50 (second compound 10 µM) of over 100 nM. The viability, T/C (second compound 0.0316 µM, first compound 0.000316 µM) was 110%, the viability, T/C (second compound 0.0316 µM, first compound 0.001 µM) was 95.1% and the viability, T/C [25] was 106%. For the same compound, the viability, T/C [26] was 89.6%, the viability, T/C [1] was 98.1% and the viability, T/C [2] was 68.7%. The viability, T/C (second compound 0.1 µM, first compound 0.000316 µM) was 112%, the viability, T/C (second compound 0.1 µM, first compound 0.001 µM) was 99.6% and the viability, T/C [27] was 96%. The viability, T/C [28] was 107%, the viability, T/C [5] was 99.1% and the viability, T/C [6] was 77.5%. For the same compound, the viability, T/C (second compound 0.316 µM, first compound 0.000316 µM) was 109%, the viability, T/C (second compound 0.316 µM, first compound 0.001 µM) was 91.2% and the viability, T/C [29] was 92.4%. For the same compound, the viability, T/C [30] was 87%, the viability, T/C [9] was 96.5% and the viability, T/C [10] was 71.3%. The viability, T/C (second compound 1 µM, first compound 0.000316 µM) was 93.4%, the viability, T/C (second compound 1 µM, first compound 0.001 µM) was 99% and the viability, T/C [31] was 101%. It also gave a viability, T/C [32] of 104%, a viability, T/C [13] of 97.9% and a viability, T/C [14] of 75.9%. The viability, T/C (second compound 3.16 µM, first compound 0.000316 µM) was 97.2%, the viability, T/C (second compound 3.16 µM, first compound 0.001 µM) was 100% and the viability, T/C [33] was 94.6%. It also gave a viability, T/C [34] of 91.8%, a viability, T/C [17] of 92.2% and a viability, T/C [18] of 81%. It also gave a viability, T/C (second compound 10 µM, first compound 0.000316 µM) of 100%, a viability, T/C (second compound 10 µM, first compound 0.001 µM) of 99.6% and a viability, T/C [35] of 92.4%. The viability, T/C [36] was 84.2%, the viability, T/C [21] was 78% and the viability, T/C [22] was 54.6%.
